Test results taken from PMC6825270 (Proceedings of the National Academy of Sciences of the …, 2019).

Assays:
mouse MOPr (mMOPr) = mouse MOPr (mMOPr) (Mus musculus, UniProt P42866); experiment: GGIRK activation in AtT20 cells expressing mMOPr, perforated patch; assay type: cell-based
MOPr = MOPr (Mus musculus, UniProt P42866); assay type: cell-based; details: GRK2-positive cells, saturating concentrations
human MOPr (hMOPr) = human MOPr (hMOPr) (Homo sapiens, UniProt P35372); experiment: Inhibition of forskolin-stimulated cAMP formation in hMOPr HEK cells; assay type: cell-based; details: 10 µM
Sequence of human MOPr (hMOPr) (P35372 whole entry): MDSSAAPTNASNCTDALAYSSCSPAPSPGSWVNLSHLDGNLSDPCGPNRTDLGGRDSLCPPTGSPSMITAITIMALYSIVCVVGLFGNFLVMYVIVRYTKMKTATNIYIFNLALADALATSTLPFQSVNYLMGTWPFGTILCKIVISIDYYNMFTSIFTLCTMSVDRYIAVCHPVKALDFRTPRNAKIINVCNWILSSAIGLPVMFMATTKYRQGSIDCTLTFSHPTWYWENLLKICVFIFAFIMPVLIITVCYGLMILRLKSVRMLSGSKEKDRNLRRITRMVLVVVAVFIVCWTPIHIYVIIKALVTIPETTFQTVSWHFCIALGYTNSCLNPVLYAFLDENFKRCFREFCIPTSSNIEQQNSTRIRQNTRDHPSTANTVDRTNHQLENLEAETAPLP

[1] = target: human μ-opioid receptor (hMOPr) (human) (UniProt P35372); experiment: radioligand binding
[2] = target: human δ-opioid receptor (hDOPr) (human) (UniProt P41143); experiment: radioligand binding
[3] = target: human κ-opioid receptor (hKOPr) (human) (UniProt P41145); experiment: radioligand binding

| Molecule | Inhibition of cAMP formation / MOPr activity, in words (human MOPr (hMOPr)) | Ki [1] [nM] | other results |
| --- | --- | --- | --- |
| COc1ccsc1CNCC[C@@]1(c2ccccn2)CCOC2(CCCC2)C1 [oliceridine] |  |  | GGIRK activation in AtT20 cells, in words (mouse MOPr (mMOPr)): significantly less efficaciously than either morphine or bilorphin; MOPr internalization with overexpressed GRK2-YFP and β-arrestin 2-HA, in words (MOPr): clear internalization signals |
| H-FVvf-NH2 [1g] | generally inactive |  |  |
| H-FVvf-OH [1c] | generally inactive |  |  |
| H-fVvF-NH2 [1f] | generally inactive |  |  |
| H-fVvF-OH [1b] | generally inactive |  |  |
| H-fvVF-OH [1d] | generally inactive |  |  |
| bilaid A (FvVf-OH) (peptide) |  | 3100 |  |
| bilaid C (YvVf-OH) (peptide) |  | 210 |  |
| bilorphin ([Dmt]vVf-NH2) (peptide) |  |  | Ki [2]: 190 nM; Ki [3]: 770 nM |
| FVVF (D-Val at 2, D-Phe at 4; C-terminal amide) [C-terminally amidated bilaid A (1e)] |  | 750 |  |
